# According to patent publication EP1373238B1, “ALKYLXANTHATES AND THEIR USE AS PESTICIDES” (priority 2001, dated 2002):
# Where two headings read alike, the source gives them in different places.
# What was measured:
# Assay type in all cases: in vivo
# [1] = system: late third instar of Spodoptera litura; assay: Antifeedant activity, painted leaf disks of Ricinus cummunis; parameters: key to A.I (Anti-feedent index): percent protection of treated vs untreated leaf disks; conditions: for Concentration required for 50% leaf protection EC50 ±S.E: oral feeding, leaf disk
# Protocol: (§1) The average mortality and growth inhibition data of experiments was subjected to IBM AT 386 computer analysis at our laboratory for calculating LC50, LD50, EC50, ED50,etc., and other statistical data. The software used was developed by Reddy et al., 1992.
# Methodology for Antifeedant activity: Tobacco caterpillar, Spodoptera litura F., larvae will be reared on Ricinus cummunis L. leaves at 27°C and 65-70% R.H. Known area (cm^2) of leaf disks were painted with exact amount of pure compound (dissolved in acetone) and were dried at room temperature till the carrier solvent evaporated. For each concentration 5 to 6 replicates were prepared and experiments were conducted individually. Control disks were dipped in carrier solvent (acetone) alone. Third instar larvae weighing 200-250 mg are selected from stock culture, starved for 4 hr, and will be used individually for the assay of antifeedant activity. After 12 and 24 hours, leaf area meter was used to measure the consumed area of treated and untreated leaves. Based on the data the percent protection of individual compound was calculated. All these properties were compared with well-known antifeedant isolated from neem kemal 'Azadiractin'. Control and test larvae arc transferred on fresh leaves and'monitored till adult emergence to study the growth and behavioral aspects of the insect.
# [2] = system: Helicoverpa armigera (Hubner); assay: Growth regulatory (IGR) activity, topical application
# [3] = system: Brine shrimp, Artemia salina; assay: Brine shrimp bioassay (toxic activity); conditions: read-out: LC50 ± S.E.
# Protocol: Brine shrimp (Artemiasalina) eggs were hatched in a shallow rectangular dish filled with artificial seawater, which was prepared with commercial salt mixture and double distilled water. A plastic divider with several 2-mm holes was clamped in the dish to make two unequal compartments. The eggs were sprinkled into the larger compartment that was darkened, while the smaller compartment was illuminated. After 48 hours the phototropic nauplii were collected by pipette from the lighted side, being separated by the divider from their shells.
# Twenty shrimps were transferred to each sample vial and artificial seawater was added to make 5 ml. The nauplii can becounted macroscopically in the stem of the pipette against a lighted back ground. A drop of dry yeast suspension (3µg in5ml artificial seawater) was added as food to each vial (Meyer, et al., 1982). Survivors were counted with the aid of a 3 x magnifying glass, after 24 hours, and the percent mortality at each concentration and control was determined. The 24 hour counts were more useful. During control deaths, the data was corrected using Abbot's formula.
# as §1
# [4] = system: IV instar larvae of Aedes aegypti; assay: Larvicidal activity against mosquito larvae (WHO procedure, 24 hours exposure); conditions: read-out: LC50 ± S.E.
# Protocol: To determine the efficacy of different analogues of Alkylxanthates against mosquito larvae, standard procedures as recommended by World Health Organization (1981) were followed with minor modifications. The desired concentration of the test solution was obtained by adding 1 ml of an appropriate stock solution to 249 ml of tap water in 500 ml beaker. Test solutions of different concentrations were prepared by diluting the stock solution in dechlorinated and filtered tap water followed by thorough mixing. Tween -80 [Poly (oxyethylene)n - sorbitan monooleate] was used as an emulsifier at the concentration of 0.002% (v/v) to the final test solution whenever required. Control solutions were prepared in tapwater using acetone or ethanol and Tween -80 (0.002%). To each of the -test concentrations, 25 late third or early fourth instar larvae which were acclimatized earlier were added. At least three replicates of each of the tests were made. Based on the results, five to ten suitable concentrations, which produced 10 to 100% mortality, were selected for detailed study and for calculating LC50 values. Mortality was observed 24 hours after exposing the larvaeto test solutions and the data was corrected for control mortality if any, by using Abbot's formula (Abbot 1925). All tests were carried out at a room temperature maintained at 28 ± 1°C.
# as §1
# [5] = IV instar larvae, mortality after 24 hours
Structure (SMILES),A.I (Anti-feedent index) ([1]; 10 µg/sq.cm.),Percent leaf consumption 12 hr ([1]; 10 µg/sq.cm.) [%],Percent leaf consumption 24 hr ([1]; 10 µg/sq.cm.) [%],A.I (Anti-feedent index) ([1]; 15 µg/sq.cm.),Percent leaf consumption 12 hr ([1]; 15 µg/sq.cm.) [%],Percent leaf consumption 24 hr ([1]; 15 µg/sq.cm.) [%],A.I (Anti-feedent index) ([1]; 20 µg/sq.cm.),Percent leaf consumption 12 hr ([1]; 20 µg/sq.cm.) [%],Percent leaf consumption 24 hr ([1]; 20 µg/sq.cm.) [%],Concentration required for 50% leaf protection EC50 ±S.E [1],A.I (Anti-feedent index) ([1]; 25 µg/sq.cm.),Percent leaf consumption 12 hr ([1]; 25 µg/sq.cm.) [%],Percent leaf consumption 24 hr ([1]; 25 µg/sq.cm.) [%],"LC50 ([4]; iv, 24 h) [µg/mL]",LC50 ([3]; mortality after 24 hours) [µg/mL],"LC50 [4, 5] [µg/mL]",also measured
"C/C=C(\C)C(=O)O[C@H]1C[C@@H](OC(C)=O)[C@@]2(C(=O)OC)CO[C@H]3[C@@H](O)[C@@](C)([C@]45O[C@@]4(C)[C@H]4C[C@@H]5O[C@@H]5OC=C[C@@]54O)[C@H]4[C@]1(CO[C@]4(O)C(=O)OC)[C@@H]32 [Azadiractin, reference compound]",48.09,18.6,33.3,54.98,16.4,27.6,76.42,4.2,12.7,6.34±.77 µg/cm^2,,,,,,,"A.I (Anti-feedent index) ([1]; 5.0 µg/sq.cm.): 24.84; Percent leaf consumption 12 hr ([1]; 5.0 µg/sq.cm.): 33.7%; Percent leaf consumption 24 hr ([1]; 5.0 µg/sq.cm.): 57.2%; IGR activity, mode of action [2]: less larvicidal activity, minimized in the formation of normal pupae and emergence of normal adults"
"CC[C@@]1(O)C(=O)OCc2c1cc1n(c2=O)Cc2cc3ccccc3nc2-1 [Chamtothecin, reference compound]",,,,,,,,,,,,,,,,,LC50 ([3]; 24 h): 2.53 ± 0.43 µg/mL
"S=C(OCC1CCCO1)SCSC(=S)OCC1CCCO1 (stereo not shown) [Compound 1, Methylene Bis(tetrahydrofurfurylxanthate)]",,,,,,,,,,37.21±9.67 µg/cm^2,22.42,31.5,60.2,3.77 ± 0.59,5.63 ± 0.62,,A.I (Anti-feedent index) ([1]; 12.5 µg/sq.cm.): 8.20; Percent leaf consumption 12 hr ([1]; 12.5 µg/sq.cm.): 48.6%; Percent leaf consumption 24 hr ([1]; 12.5 µg/sq.cm.): 80.6%; A.I (Anti-feedent index) ([1]; 35 µg/sq.cm.): 33.52; Percent leaf consumption 12 hr ([1]; 35 µg/sq.cm.): 25.9%; Percent leaf consumption 24 hr ([1]; 35 µg/sq.cm.): 47.3%; A.I (Anti-feedent index) ([1]; 50 µg/sq.cm.): 35.23; Percent leaf consumption 12 hr ([1]; 50 µg/sq.cm.): 22.1%; Percent leaf consumption 24 hr ([1]; 50 µg/sq.cm.): 45.5%
"CCCCOC(=S)SCc1cccc(F)c1 [Compound 2, m-Fluorobenzyl (n-butylxanthate)]",,,,,,,,,,,,,,12.5 ± 1.24,19 ± 2.83,,
"CC(C)COC(=S)SCc1cccc(F)c1 [Compound 3, m-Fluorobenzyl (isobutylxanthate)]",11.63,50.4,75.2,16.07,33.24,68.7,27.86,24.7,53.6,19.65±2.99 µg/cm^2,48.67,12.5,32.8,11.8 ± 2.35,22.5 ± 3.26,,
"CC(C)COC(=S)SCCSC(=S)OCC(C)C [Compound 4, Ethylene Bis (isobutylxanthate)]",,,,,,,,,,,,,,,25.8 ± 2.9,8.06 ± 0.22,
"CCCCOC(=S)SCSC(=S)OCCCC [Compound 5, Methylene Bis (n-butytxanthate)]",5.50,48.5,85.1,22.27,35.2,60.4,35.14,22.5,45.6,17.11±1.36 µg/cm^2,64.22,3.5,20.7,,34.6 ± 3.91,5.33 ± 0.97,A.I (Anti-feedent index) ([1]; 30 µg/sq.cm.): 85.37; Percent leaf consumption 12 hr ([1]; 30 µg/sq.cm.): -0- %; Percent leaf consumption 24 hr ([1]; 30 µg/sq.cm.): 7.5%
"CCCCOC(=S)SCc1ccc(CSC(=S)OCCCC)cc1 [Compound 12, p-Xylene Bis (n-butylcanthate)]",2.59,57.3,90.2,5.97,62.4,84.3,24.51,35.2,57.6,20.45±1.76 µg/cm^2,58.86,20.5,24.6,,45.2 ± 5.63,7.35 ± 0.51,
